The values that follow come from US7145032B2, “Therapeutic malonic acid/acetic acid C60 tri-adducts of buckminsterfullerene and methods related thereto” (priority 2002, dated 2006).

A value given as a limit tells only on which side of the number the result lay.

The nature of series [1]: Reactivity of C3 with superoxide. It is filed as biochemical. Particulars: calculated. The source says:
Because many important biological reactions generate reactive oxygen species intentionally, or as unwanted toxic by-products, antioxidant molecules capable of supplementing the antioxidant defenses of cells as potential therapeutic agents are therapeutically useful. […] These novel carboxyfullerene compositions have antioxidant properties.

In series [2] the test system is C57B6 mice. It is filed as in vivo. As to conditions: oral C3 from 12 months of age to end of life, versus control.
Experimental: The date of spontaneous death for each mouse was recorded, and used to calculate the lifespan. Lifespan of each mouse was calculated in months because mice received from the NIA rodent colony have their birth month, but not their specific birth date, recorded. Average survival was calculated for each treatment and the mean lifespans were compared using a t-test with significance set to p<0.05 (actual p=0.033).
Twelve month old C57B6NIH male and female mice (equal numbers) were purchased from the National Institute on Aging (NIA) Aging Rodent Colony. Mice shipped from this colony were not selected in any way for health, tumors or other disabilities, and all mice obtained from the colony were subsequently enrolled in the study. […]
Solution A or solution B was placed in the water bottles, and solutions were topped-off twice weekly, and filtered to remove any particulates biweekly by an individual blind to the identity of the solutions. […] Mice were allowed to die spontaneously, and their date of death were recorded by the Animal Housing Facility staff as part of the normal operating procedure of the facility. […] When animals died, the cage number, identity of the animal, and the date of death were recorded on the death notice, which was then sent to the laboratory, where the information was entered into the database.
Series [3] is described as follows: Plasma pharmacokinetics and tissue distribution in mice. The source says: The above dosing information is based on a pharmokinetics study carried out in mice, toxicity testing in mice and toxicity testing in rats.
A short description of the next series: Solubility. The series is classed as physicochemical. The source says: The progress of the reaction was monitored by HPLC (Protocol 2).
Series [4] is described as follows: Thermal stability in 1:1 acetonitrile:water at 60°. It is filed as physicochemical. As to conditions: for Hexa, percent of injected compound (HPLC): 60° C. The source says: The composition was monitored by HPLC, using protocols 2 and 4 (see Table 1).
Series [5] in a line: Hydration of freeze dried sodium salt. It is filed as physicochemical. As to conditions: dry weight divided by expected weight for complete neutralization; freeze dried 4 days.
A further series has as its system rats. As to conditions: treatment from age 96 weeks to end of life; control 147+/−1; cited from earlier work.
Series [6] relates to Fisher 344 rats. As to conditions: cited from earlier work.
The test system of series [7] is Fisher 344 rats. As to conditions: same dose of deprenyl; cited from earlier work.
Series [8] concerns C57B6 mice. As to conditions: chronic treatment starting at 18 months of age; cited from earlier work.
A further series deals with Drosophila. Particulars: controlled study; cited from earlier work.
The subject of the next series is monkeys. As to conditions: one monkey; mean survival 25 months; cited from earlier work.

Turning to “e,e,e tris malonic acid C60 [Compound C3]”, the “rate constant of C3 reaction with superoxide” value in series [1] is 3e+06 M⁻¹ s⁻¹. Further, in the series on C57B6 mice [2], the “increase in the lifespan” value is given as “approximately 20%”. Further, in series [3], the route of clearance entry was “excretion through both the liver and kidney”. Moreover, the “tissue levels / distribution” value in [3] (various times after ip administration) was “accumulation through the liver and kidney”. For the same compound, the “Solubility Sodium salt” value in the series “Solubility” (calculated for the acid, unit not printed for this column (neighbour: mg/ml)) is recorded as >450^6. Moreover, in “Solubility” (uv of liquid portion of a saturated solution), the “Solubility Water” value is >454^6 mg/ml. Further, the “Thermal Stability # of products” value in [4] (60°) amounted to 10. In addition, the “Hexa, percent of injected compound (HPLC)” value was determined as 2.6% in [4] (incubation 5.5 h); 9.2% in series [4] (incubation […]); 40.5% in [4] (incubation […], 97.4% at 0 h). Moreover, the “Hydration of Na salt” value in series [5] is 1.31.

`C#CCN(C)[C@H](C)Cc1ccccc1` [deprenyl]: in the series with rats, the “lifespan of treated rats” value is on record as 198+/−2 weeks. Also, the increase in longevity in the series on Fisher 344 rats [6] (not statistically significant) is recorded as 7%. Further, the “mean survival of treated animals” value in the series on Fisher 344 rats [6] (treatment from 18 months of age, controls 28 months) is 30 months. Further, the “effect on mortality and lifespan” value in the series with Fisher 344 rats [7] is “greater mortality and shortened lifespan”. For the same compound, the survival benefit entry with C57B6 mice [8] is recorded as “failed to show any survival benefit”. The effect on lifespan entry with Drosophila is given as “did not show an increase in lifespan”.

As for `O=CC[C@@H](O)[C@H](O)[C@H](O)CO` [2-deoxyglucose], in the series with monkeys, the “survival of a treated monkey” value is 38 months.
